{"source": "patent US10221271B2", "about": "“Polymer/copper combination for targeted cancer therapy” (University of South Carolina, priority 2014, dated 2019)", "key": {"SKOV-3 cells [1]": {"test_system": "SKOV-3 cells", "assay": "Cellular uptake of Cy5 labeled nanoparticles, flow cytometry and confocal microscopy", "format": "cell-based", "conditions": "DTNB binds exofacial free thiol groups", "protocol": "FIG. 9 presents […] spectra of SKOV-3 (left) and NIH 3T3 (right) cells. Cellular uptake assays were carried out 1 h after the addition of nanoparticles. Scale bars were 20 μm.\nFIG. 10 presents the flow cytometry spectra of SKOV-3 (left) and NIH 3T3 (right) cells treated with Cy5 labeled PDA-PEG nanoparticles. Cellular uptake assays were carried out 1 h after the addition of nanoparticles.\nPDA-PEG was modified by Cy5 for cellular uptake study. Briefly, cysteamine (0.11 mg, 5% PDA function group) in 500 μL DMSO was added dropwise into 20 mg PDA-PEG in 500 μL DSMO and the reaction mixture was kept at room temperature overnight. After overnight reaction, Cy5-NHS ester (0.39 mg in 390 μL DMSO) was added and the mixture was kept for reacting overnight, following a thoroughly dialysis towards DMSO to remove free Cy5. The concentration of Cy5 in the final product was measured by a microplate reader (SpectraMax® M5. Molecular Devices Inc) at λex640 and λem680.\nTo probe the mechanism for PDA-PEG/Cu^2+ selectively killing cancer cells, the cellular uptake of PDA-PEG and PDA-PEG/Cu^2+ nanoparticle was investigated with flow cytometry and confocal microscopy. […] Therefore, the uptake of PDA-PEG/Cu^2+ wasn't the reason for its cancer-cell-selectivity. 5,5′-Dithio-bis-(2-nitrobenzoic acid) (DTNB) is a compound binds the free thiol groups on the surface of cell membrane. […]"}, "[2]": {"test_system": "intracellular GSH in normal cells (NIH 3T3, BNL CL.2, KC, and MCF 10A)", "conditions": "GSH-MME 5 mM, 8 h", "protocol": "(§1) It has been reported that GSH levels in tumor tissues, such as ovarian, head and neck, breast, and lung cancer are higher than that in normal tissues. To probe whether the high GSH level is also prevail in cancer cells in vitro, GSH-Glo™ Glutathione Assay was employed. Briefly, tumor and normal cells were seeded in 96-well white plate (5,000 cells/well) overnight prior to the study. BSO (1 mM) or GSH-MME (5 mM) in culture medium was added. For control group, only fresh culture medium was added. Cells were incubated for 8 h, and the intracellular GSH concentration was measured by GSH-Glo™ Glutathione Assay according to the manufacturer's instruction.\n(§2) Accordingly, glutathione-monomethylester (GSH-MME, 5 mM) and buthionine sulfoxamine (BSO, 1 mM) were employed to boost or deplete the intracellular GSH level in normal cells (NIH 3T3, BNL CL.2, KC, and MCF 10A) or cancer cells (NCI/ADR-Res, HCT 116, UMSCC 22A, SKOV-3, and MDA-MB-231), respectively."}, "[3]": {"test_system": "intracellular GSH in NCI/ADR-Res, UMSCC 22A, and SKOV-3 cells", "assay": "GSH-Glo Glutathione Assay, intracellular GSH level", "format": "cell-based", "conditions": "BSO 1 mM, 8 h", "protocol": "as §1, §2"}, "SKOV-3 cells [4]": {"test_system": "SKOV-3 cells", "assay": "Cell cycle analysis by flow cytometry", "format": "cell-based", "conditions": "41.58 μM, 12 h, FIG. 14", "protocol": "FIG. 14 presents cell cycle analysis of SKOV-3 cells after treated with 41.58 μM of PDA-PEG/Cu2+ for 12 h. Flow cytometry spectra (A) and quantitive analysis (B) of cell cycle. Data represent the means±SD, n=3. *p<0.01.\nCDKN1C is an inhibitor for G1 cyclin/Cdk complexes and causes cell arrest in G1 phase. To investigate the effect of CDKN1C up-regulation after PDA-PEG/Cu^2+treatment, cell cycle analysis was employed."}}}
{"compound": "O=C(O)c1cc(SSc2ccc([N+](=O)[O-])c(C(=O)O)c2)ccc1[N+](=O)[O-]", "note": "[DTNB, 5,5′-Dithio-bis-(2-nitrobenzoic acid)]", "values": [{"measurement": "effect on cellular uptake of PDA-PEG", "setting": "SKOV-3 cells [1]", "result": "significantly inhibited"}]}
{"compound": "COC(=O)CNC(=O)[C@H](CS)NC(=O)CC[C@H](N)C(=O)O", "note": "[GSH-MME, Glutathione monomethylester]", "values": [{"measurement": "intracellular GSH level", "setting": "[2]", "result": "higher intracellular GSH level"}]}
{"compound": "CCCCS(=N)(=O)CCC(N)C(=O)O", "note": "(stereo not shown) [BSO, Buthionine sulfoximine]", "values": [{"measurement": "intracellular GSH level", "setting": "[3]", "result": "declined GSH level"}]}
{"compound": "[Cl][Cu][Cl]", "note": "[Cu^2+ ion, CuCl2]", "values": [{"measurement": "effect on cell cycle distribution", "setting": "SKOV-3 cells [4]", "result": "did not show any effect"}]}
